Values joined by “and” are separate entries in the source; they are usually repeats but may differ in a detail not shown here. Equal entries are not always repeated.
Experiments:
female CDF1 mice = assay: Toxicity test against mouse extension reflex (peripheral nerve impairment); type: in vivo; conditions: 30 mg/kg in terms of paclitaxel, tail vein, 5 consecutive days, hind limbs
Procedure: Micellar preparation 10 or paclitaxel alone was administered to female CDF1 mice through their tail veins for consecutive 5 days to observe the extension reflex of their hind limbs providing an indication of peripheral nerve impairment due to paclitaxel. Each agent was prepared as described in Test Example 1, and used directly, or after dilution with saline before use. The dosages used were expressed in terms of paclitaxel.

[1] = tested on: mouse colon cancer Colon 26 cells; assay: In vivo antitumor effect against Colon 26; conditions: average tumor volume treated/untreated, 11 days after treatment, 30 mg/kg in terms of paclitaxel, tail vein, 5 consecutive days, female CDF1 mice
Procedure: Female CDF1 mice were inoculated subcutaneously at the back thereof with the mouse colon cancer Colon 26 cells, and, from the point of time when the volume of tumor has reached around 100 mm^3, micellar preparation 10 according to the invention, the micellar composition from Comparative Example, or paclitaxel was administered through the tail veins of the mice for consecutive 5 days to examine effects against advanced cancer. Each agent was used directly, or after dilution with saline before use. The concentration of each agent was expressed in terms of paclitaxel. The antitumor effect of agent was judged on the basis of a percentage of the average tumor volume in treated group to the average tumor volume in untreated group (T/C %) 11 days after agent treatment.

[2] = Transition of paclitaxel concentrations in the rat plasma; type: in vivo; conditions: intravenous, 5 mg/kg paclitaxel equivalent, tail vein, male SD rats
Procedure: Micellar preparation 10 from Example 9 was diluted with normal saline solution to make an aqueous solution having a concentration of 2.5 mg/mL in terms of paclitaxel. Paclitaxel alone was dissolved in ethanol, to which Cremophor (Sigma) was then added in the same amount as ethanol to prepare in such a way that the concentration of paclitaxel was adjusted to 25 mg/mL, followed by dilution to 2.5 mg/mL with normal saline solution immediately before administration. Micellar preparation 10 or paclitaxel alone was administered in an amount equivalent to paclitaxel 5 mg/kg to male SD rats through their tail veins, followed by taking blood samples from their cervical veins with time. The plasma obtained by centrifugation was diluted with an appropriate amount of water and subjected to three rounds of extraction with t-butyl methyl ether. The ether layer was recovered, dried up, and then dissolved in 50 μL of actonitrile, followed by quantitating paclitaxel using HPLC.

AUC(0-t) ([2]; read-out: AUC (0-360) (converted)): 1170 ng·h/mL
concentration at 10 min ([2]; blood drawing time 10 min): 1050 ng/mL
concentration at 30 min ([2]; blood drawing time 30 min): 510 ng/mL
concentration at 60 min ([2]; blood drawing time 60 min): 260 ng/mL
concentration at 120 min ([2]; blood drawing time 120 min): 100 ng/mL
concentration at 360 min ([2]; blood drawing time 360 min): 35 ng/mL
Compound: CC(=O)O[C@H]1C(=O)[C@@]2(C)[C@H]([C@H](OC(=O)c3ccccc3)[C@]3(O)C[C@H](OC(=O)[C@H](O)[C@@H](NC(=O)c4ccccc4)c4ccccc4)C(C)=C1C3(C)C)[C@]1(OC(C)=O)CO[C@@H]1C[C@@H]2O [Paclitaxel, paclitaxel]
Mice showing extension reflex disappearance (female CDF1 mice): 3/3
Mice showing extension reflex disappearance (female CDF1 mice; listed as paclitaxel alone): induced the disappearance of extension reflex in all mice
T/C (%) [1]: 40.0% and 37.5%
T/C (%) ([1]; listed as paclitaxel alone): 37.5% and 40.0%
